Experimental data published in patent US9371336B2, “Compounds for treating spinal muscular atrophy” (PTC Therapeutics Inc., priority 2012, dated 2016).

Legend:
[1] = tested on: SMN2 minigene mRNA (SMN2-A minigene construct); test: SMN2 minigene mRNA splicing RT-qPCR assay in cultured cells; format: cell-based, human; conditions: Homo sapiens, HEK293-H; HEK293H cells stably transfected with SMN2-A minigene, 24 hours, 7-point concentration data; concentration giving 1.5-fold SMN2 full length mRNA relative to vehicle-treated cells; read-out: EC1.5x for production of full length SMN2 mRNA
Experimental: The reverse transcription-quantitative PCR-based (RT-qPCR) assay is used to quantify the level of the full length SMN2 minigene mRNA containing SMN2 exon 7 in a HEK293H cell line stably transfected with said minigene and treated with a test compound.
HEK293H cells stably transfected with the SMN2-A minigene construct described above (10,000 cells/well) are seeded in 200 μL of cell culture medium (DMEM plus 10% FBS, with 200 μg/mL hygromycin) in 96-well flat-bottom plates and the plate is immediately swirled to ensure proper dispersal of cells, forming an even monolayer of cells. Cells are allowed to attach for at least 4-6 hours. Test compounds are serially diluted 3.16-fold in 100% DMSO to generate a 7-point concentration curve. A solution of test compound (1 μL, 200× in DMSO) is added to each cell-containing well and the plate is incubated for 24 hours in a cell culture incubator (37° C., 5% CO2, 100% relative humidity). Two replicates are prepared for each test compound concentration. The cells are then lysed in Cells-To-Ct lysis buffer and the lysate is stored at −80° C.
Primer SMN Forward A (SEQ ID NO. 1) hybridizes to a nucleotide sequence in exon 7 (nucleotide 22 to nucleotide 40), primer SMN Reverse A (SEQ ID NO. 2) hybridizes to a nucleotide sequence in the coding sequence of Firefly luciferase, SMN Probe A (SEQ ID NO. 3) hybridizes to a nucleotide sequence in exon 7 (nucleotide 50 to nucleotide 54) and exon 8 (nucleotide 1 to nucleotide 21). The combination of these three oligonucleotides detects only SMN1 or SMN2 minigenes (RT-qPCR) and will not detect endogenous SMN1 or SMN2 genes.
The SMN forward and reverse primers are used at final concentrations of 0.4 μM. The SMN probe is used at a final concentration of 0.15 μM. The GAPDH primers are used at final concentrations of 0.2 μM and the probe at 0.15 μM.
The SMN2-minigene GAPDH mix (15 μL total volume) is prepared by combining 7.5 μL of 2×RT-PCR buffer, 0.4 μL of 25×RT-PCR enzyme mix, 0.75 μL of 20×GAPDH primer-probe mix, 4.0075 μL of water, 2 μL of 10-fold diluted cell lysate, 0.06 μL of 100 μM SMN forward primer, 0.06 μL of 100 μM SMN reverse primer, and 0.225 μL of 100 μM SMN probe.
PCR is carried out at the following temperatures for the indicated time: Step 1: 48° C. (15 min); Step 2: 95° C. (10 min); Step 3: 95° C. (15 sec); Step 4: 60° C. (1 min); then repeat Steps 3 and 4 for a total of 40 cycles.
Each reaction mixture contains both SMN2-A minigene and GAPDH primers/probe sets (multiplex design), allowing simultaneous measurement of the levels of two transcripts.
Two SMN spliced products are generated from the SMN2 minigene. The first spliced product containing exon 7, corresponding to SMN2 full length mRNA, is referred to herein using the term “SMN2 minigene FL.” The second spliced product lacking exon 7 is referred to herein using the term “SMN2 minigene Δ7.”
The increase of SMN2 minigene FL mRNA relative to that in cells treated with vehicle control is determined from real-time PCR data using a modified ΔΔCt method (as described in Livak and Schmittgen, Methods, 2001, 25:402-8). The amplification efficiency (E) is calculated from the slope of the amplification curve for SMN2 minigene FL and GAPDH individually. The abundances of SMN2 minigene FL and GAPDH are then calculated as (1+E)^−Ct, where Ct is the threshold value for each amplicon. The abundance of SMN2 minigene FL is normalized to GAPDH abundance. The normalized SMN2 minigene FL abundance from test compound-treated samples is then divided by normalized SMN2 minigene FL abundance from vehicle-treated cells to determine the level of SMN2 FL mRNA relative to vehicle control.

Smn protein = Smn protein assay (HTRF) in cultured cells (SMA patient fibroblasts GM03813); format: cell-based, human; conditions: 48 hours; for EC1.5x for Smn protein expression: SMA patient fibroblast cells (GM03813), HTRF, 7-point concentration data, concentration producing 1.5 times Smn protein vs DMSO vehicle control; for maximum fold (Fold) increase of Smn protein: SMA patient fibroblast cells, 7-point concentration curve, relative to vehicle control
Experimental: The Smn HTRF (homogeneous time resolved fluorescence) assay is used to quantify the level of Smn protein in SMA patient fibroblast cells treated with test compounds.
Cells are thawed and cultured in DMEM-10% FBS for 72 hours. Cells are trypsinized, counted and re-suspended to a concentration of 25,000 cells/mL in DMEM-10% FBS. The cell suspension is plated at 5,000 cells per well in a 96 well microtiter plate and incubated for 3 to 5 hours. […] Test compounds are serially diluted 3.16-fold in 100% DMSO to generate a 7-point concentration curve. 1 μL of test compound solution is transferred to cell-containing wells and cells are incubated for 48 hours in a cell culture incubator (37° C., 5% CO2, 100% relative humidity). Triplicate samples are set up for each test compound concentration. After 48 hours, the supernatant is removed from the wells and 25 μL of the RIPA lysis buffer, containing protease inhibitors, is added to the wells and incubated with shaking at room temperature for 1 hour. 25 μL of the diluent is added and then 35 μL of the resulting lysate is transferred to a 384-well plate, where each well contains 5 μL of the antibody solution (1:100 dilution of anti-SMN d2 and anti-SMN kryptate in SMN reconstitution buffer). The plate is centrifuged for 1 minute to bring the solution to the bottom of the wells, then incubated overnight at room temperature. Fluorescence for each well of the plate at 665 nm and 620 nm is measured on an EnVision multilabel plate reader (Perkin-Elmer).
The normalized fluorescence signal is calculated for each sample, Blank and vehicle control well by dividing the signal at 665 nm by the signal at 620 nm. Normalizing the signal accounts for possible fluorescence quenching due to the matrix effect of the lysate. The ΔF value (a measurement of Smn protein abundance as a percent value) for each sample well is calculated by subtracting the normalized average fluorescence for the Blank control wells from the normalized fluorescence for each sample well, then dividing this difference by the normalized average fluorescence for the Blank control wells and multiplying the resulting value by 100. The ΔF value for each sample well represents the Smn protein abundance from test compound-treated samples. The ΔF value for each sample well is divided by the ΔF value for the vehicle control wells to calculate the fold increase in Smn protein abundance relative to the vehicle control.

Row | Compound | EC (1.5-fold) [1] [µM] | EC1.5x for Smn protein expression (Smn protein) | maximum fold (Fold) increase of Smn protein (Smn protein) | melting point [°C]
1 | O=c1oc2nc(N3CCNCC3)ccc2cc1-c1nc2ccccc2s1 [Cpd 1, 3-(1,3-benzothiazol-2-yl)-7-(piperazin-1-yl)-2H-pyrano[2,3-b]pyridin-2-one] | 0.1 to 0.3 | *** (an EC1.5× between >0.3 μM and ≦1 μM is indicated by three stars (***)) | *** (a fold increase between >1.35 and ≦1.5 is indicated by three stars (***)) | 258 to 260
2 | CN1CCN(c2ccc3cc(-c4nc5ccccc5s4)c(=O)oc3n2)CC1 [Cpd 3, 3-(1,3-benzothiazol-2-yl)-7-(4-methylpiperazin-1-yl)-2H-pyrano[2,3-b]pyridin-2-one] | 0.3 to 1 | * (An EC1.5× for Smn protein expression between >3 μM and ≦10 μM is indicated by one star (*)) | *** (a fold increase between >1.35 and ≦1.5 is indicated by three stars (***)) | 247 to 250
3 | O=c1oc2nc(N3CCN(Cc4ccccc4O)CC3)ccc2cc1-c1nc2c(Cl)cccc2s1 [Cpd 6, 3-(4-chloro-1,3-benzothiazol-2-yl)-7-[4-(2-hydroxybenzyl)piperazin-1-yl]-2H-pyrano[2,3-b]pyridin-2-one] | 3 to 30 |  | ** (a fold increase between >1.2 and ≦1.35 is indicated by two stars (**)) | 262 to 266
4 | Cl.O=c1oc2cc(N3CCNCC3)ncc2cc1-c1nc2c(Cl)cccc2s1 [Cpd 9, 3-(4-chloro-1,3-benzothiazol-2-yl)-7-(piperazin-1-yl)-2H-pyrano[3,2-c]pyridin-2-one hydrochloride] | 0.1 to 0.3 |  | * (A maximum fold increase ≦1.2 is indicated by one star (*)) | 266 to 270
5 | O=c1oc2nc(N3CCN(CCO)CC3)ccc2cc1-c1nc2c(Cl)cccc2s1 [Cpd 10, 3-(4-chloro-1,3-benzothiazol-2-yl)-7-[4-(2-hydroxyethyl)piperazin-1-yl]-2H-pyrano[2,3-b]pyridin-2-one] | 0.3 to 1 | *** (an EC1.5× between >0.3 μM and ≦1 μM is indicated by three stars (***)) | *** (a fold increase between >1.35 and ≦1.5 is indicated by three stars (***)) | 258 to 262
6 | CN1CCN(c2cc3oc(=O)c(-c4nc5c(Cl)cccc5s4)cc3cn2)CC1 [Cpd 11, 3-(4-chloro-1,3-benzothiazol-2-yl)-7-(4-methylpiperazin-1-yl)-2H-pyrano[3,2-c]pyridin-2-one] | 0.3 to 1 |  | * (A maximum fold increase ≦1.2 is indicated by one star (*)) | 285 to 288
7 | CCN1CCN(c2ccc3cc(-c4nc5c(Cl)cccc5s4)c(=O)oc3n2)CC1 [Cpd 12, 3-(4-chloro-1,3-benzothiazol-2-yl)-7-(4-ethylpiperazin-1-yl)-2H-pyrano[2,3-b]pyridin-2-one] | 0.3 to 1 |  | *** (a fold increase between >1.35 and ≦1.5 is indicated by three stars (***)) | 266 to 269
8 | Cl.O=c1oc2nc(N3CCNCC3)ccc2cc1-c1cn2cccnc2n1 [Cpd 112, 3-(imidazo[1,2-a]pyrimidin-2-yl)-7-(piperazin-1-yl)-2H-pyrano[2,3-b]pyridin-2-one hydrochloride] | 0.1 to 0.3 | ** (an EC1.5× between >1 and ≦3 μM is indicated by two stars (**)) | *** (a fold increase between >1.35 and ≦1.5 is indicated by three stars (***)) | 
9 | Cc1ccc2nc(-c3cc4ccc(N5C[C@@H]6C[C@H]5CN6)nc4oc3=O)cn2c1 [Cpd 124, 7-[(1S,4S)-2,5-diazabicyclo[2.2.1]hept-2-yl]-3-(6-methylimidazo[1,2-a]pyridin-2-yl)-2H-pyrano[2,3-b]pyridin-2-one] | 0.1 to 0.3 | *** (an EC1.5× between >0.3 μM and ≦1 μM is indicated by three stars (***)) | **** (a fold increase between >1.5 and ≦1.65 is indicated by four stars (****)) | 
10 | Cc1cn2cc(-c3cc4ccc(N5C[C@@H]6C[C@H]5CN6)nc4oc3=O)nc2c(C)n1 [Cpd 135] | ≤ 0.1 | *** (an EC1.5× between >0.3 μM and ≦1 μM is indicated by three stars (***)) | ***** (a fold increase >1.65 is indicated by five stars (*****)) | 
11 | Cc1cc(F)c2nc(-c3cc4ccc(N5C[C@@H]6C[C@H]5CN6)nc4oc3=O)cn2c1 [Cpd 136, 7-[(1S,4S)-2,5-diazabicyclo[2.2.1]hept-2-yl]-3-(8-fluoro-6-methylimidazo[1,2-a]pyridin-2-yl)-2H-pyrano[2,3-b]pyridin-2-one] | ≤ 0.1 | *** (an EC1.5× between >0.3 μM and ≦1 μM is indicated by three stars (***)) | *** (a fold increase between >1.35 and ≦1.5 is indicated by three stars (***)) | 
12 | Cc1cn2cc(-c3cc4ccc(N5CCN[C@@H](C)C5)nc4oc3=O)nc2c(C)n1 [Cpd 146, 3-(6,8-dimethylimidazo[1,2-a]pyrazin-2-yl)-7-[(3S)-3-methylpiperazin-1-yl]-2H-pyrano[2,3-b]pyridin-2-one] | ≤ 0.1 | **** (an EC1.5×≦0.3 μM is indicated by four stars (****)) | **** (a fold increase between >1.5 and ≦1.65 is indicated by four stars (****)) | 
